Measured values: the CombiSolv-Exp solvation set (Vermeire and Green 2021)
One block for each compound: values may come before it.

Test: solvent given as SMILES

solvation free energy, 298 K (in CCCCCCCC): -5.41 kcal/mol
solvation free energy, 298 K (in CCCCCCCCCC): -5.33 kcal/mol
SMILES: CC(O)CC(C)(C)C (stereo not given)

solvation free energy, 298 K (in O): -11.9 kcal/mol
SMILES: COCCCNc1nc(NC(C)C)nc(SC)n1

solvation free energy, 298 K (in O): -4.3 kcal/mol
SMILES: CCCCCC(=O)CC(C)=O

solvation free energy, 298 K (in O): -11.5 kcal/mol
SMILES: Nc1ccc2c(c1)C(=O)c1ccccc1C2=O

SMILES: Clc1cc2c(cc1Cl)Oc1c(Cl)c(Cl)c(Cl)c(Cl)c1O2
solvation free energy, 298 K (in O): -3.71 kcal/mol

SMILES: c1ccc(P(c2ccccc2)c2ccccc2)cc1
solvation free energy, 298 K (in CC(C)O): -15.4 kcal/mol
solvation free energy, 298 K (in CCO): -15.7 kcal/mol
solvation free energy, 298 K (in CO): -15.4 kcal/mol

solvation free energy, 298 K (in O): 0.52 kcal/mol
SMILES: C=C1CC2CCC1C2(C)C (stereo not given)

solvation free energy, 298 K (in Brc1cccc2ccccc12): -2.84 kcal/mol
solvation free energy, 298 K (in CC(=O)OCc1ccccc1): -2.92 kcal/mol
solvation free energy, 298 K (in CN1CCCC1=O): -3.33 kcal/mol
solvation free energy, 298 K (in CN(C)C=O): -3.41 kcal/mol
solvation free energy, 298 K (in O): -0.22 kcal/mol
solvation free energy, 298 K (in c1ccc2ncccc2c1): -2.88 kcal/mol
SMILES: C1=CCC=C1

solvation free energy, 298 K (in O): -1.28 kcal/mol
SMILES: CCCSCCC

SMILES: CS(=O)(=O)Cl
solvation free energy, 298 K (in O): -4.87 kcal/mol

SMILES: NC(=O)c1ccccc1O
solvation free energy, 298 K (in C1CCOC1): -13.2 kcal/mol
solvation free energy, 298 K (in C1COCCO1): -13 kcal/mol
solvation free energy, 298 K (in CC(C)(C)O): -12.1 kcal/mol
solvation free energy, 298 K (in CC(C)=O): -13 kcal/mol
solvation free energy, 298 K (in CC(C)CCO): -11.9 kcal/mol
solvation free energy, 298 K (in CC(C)CO): -11.9 kcal/mol
solvation free energy, 298 K (in CC(C)O): -12.2 kcal/mol
solvation free energy, 298 K (in CC(C)OCCO): -12.8 kcal/mol
solvation free energy, 298 K (in CC(O)COC(C)(C)C): -12.6 kcal/mol
solvation free energy, 298 K (in CCC(C)O): -12.2 kcal/mol
solvation free energy, 298 K (in CCCC(C)O): -12.1 kcal/mol
solvation free energy, 298 K (in CCCCCCCCCCO): -11.6 kcal/mol
solvation free energy, 298 K (in CCCCCCCCO): -11.7 kcal/mol
solvation free energy, 298 K (in CCCCCCCO): -11.8 kcal/mol
solvation free energy, 298 K (in CCCCCCO): -12 kcal/mol
solvation free energy, 298 K (in CCCCCO): -12 kcal/mol
solvation free energy, 298 K (in CCCCO): -12.1 kcal/mol
solvation free energy, 298 K (in CCCCOC(C)=O): -12.3 kcal/mol
solvation free energy, 298 K (in CCCCOCCCC): -10.5 kcal/mol
solvation free energy, 298 K (in CCCCOCCO): -12.6 kcal/mol
solvation free energy, 298 K (in CCCO): -12.3 kcal/mol
solvation free energy, 298 K (in CCCOC(C)=O): -12.4 kcal/mol
solvation free energy, 298 K (in CCCOCCO): -12.8 kcal/mol
solvation free energy, 298 K (in CCO): -12.5 kcal/mol
solvation free energy, 298 K (in CCOC(C)=O): -12.6 kcal/mol
solvation free energy, 298 K (in CCOCCO): -13 kcal/mol
solvation free energy, 298 K (in CO): -12.7 kcal/mol
solvation free energy, 298 K (in COC(C)=O): -12.8 kcal/mol
solvation free energy, 298 K (in COC(C)CCO): -12.7 kcal/mol
solvation free energy, 298 K (in Fc1ccccc1): -10.6 kcal/mol
solvation free energy, 298 K (in O): -10.4 kcal/mol

solvation free energy, 298 K (in O): -4.73 kcal/mol
SMILES: CCc1ccncc1

solvation free energy, 298 K (in O): -1.46 kcal/mol
SMILES: CCSCC

solvation free energy, 298 K (in O): -0.26 kcal/mol
SMILES: CC1=CC2C(=CC1)C(C)CCC2C(C)C (stereo not given)

solvation free energy, 298 K (in O): -6.73 kcal/mol
SMILES: CC(C)CCCOC(=O)c1ccccc1C(=O)OCCCC(C)C

SMILES: CCCSC(=O)N(CCC)CCC
solvation free energy, 298 K (in O): -4.13 kcal/mol

solvation free energy, 298 K (in O): -17 kcal/mol
SMILES: O=P(c1ccccc1)(c1ccccc1)c1ccccc1

SMILES: Clc1c(Cl)c(Cl)c(-c2c(Cl)c(Cl)c(Cl)c(Cl)c2Cl)c(Cl)c1Cl
solvation free energy, 298 K (in CCCCCCCCC=CCCCCCCCC(=O)OCC(COC(=O)CCCCCCCC=CCCCCCCCC)OC(=O)CCCCCCCC=CCCCCCCCC): -14.6 kcal/mol
solvation free energy, 298 K (in O): -3.05 kcal/mol

SMILES: Clc1ccc(-c2ccc(Cl)c(Cl)c2)c(Cl)c1
solvation free energy, 298 K (in O): -3.15 kcal/mol

solvation free energy, 298 K (in O): 0.87 kcal/mol
SMILES: CC1(C)C2CC3C(C2)C31C

solvation free energy, 298 K (in C1CCCCC1): -5.66 kcal/mol
SMILES: C1CCCNCC1

SMILES: COc1ccc(C(=O)O)cc1
solvation free energy, 298 K (in C1CCOC1): -12.7 kcal/mol
solvation free energy, 298 K (in C1COCCO1): -12.4 kcal/mol
solvation free energy, 298 K (in CC(C)CCO): -11.5 kcal/mol
solvation free energy, 298 K (in CC(C)CO): -11.5 kcal/mol
solvation free energy, 298 K (in CC(C)O): -11.8 kcal/mol
solvation free energy, 298 K (in CC(C)OC(C)C): -10.8 kcal/mol
solvation free energy, 298 K (in CC(C)OCCO): -12.3 kcal/mol
solvation free energy, 298 K (in CC(O)COC(C)(C)C): -11.9 kcal/mol
solvation free energy, 298 K (in CCC(C)O): -11.7 kcal/mol
solvation free energy, 298 K (in CCCC(C)O): -11.6 kcal/mol
solvation free energy, 298 K (in CCCCCCCCCCO): -11.4 kcal/mol
solvation free energy, 298 K (in CCCCCCCCO): -11.5 kcal/mol
solvation free energy, 298 K (in CCCCCCCO): -11.5 kcal/mol
solvation free energy, 298 K (in CCCCCCO): -11.6 kcal/mol
solvation free energy, 298 K (in CCCCCO): -11.6 kcal/mol
solvation free energy, 298 K (in CCCCO): -11.7 kcal/mol
solvation free energy, 298 K (in CCCCOC(C)=O): -11.5 kcal/mol
solvation free energy, 298 K (in CCCCOCCO): -12.2 kcal/mol
solvation free energy, 298 K (in CCCO): -11.8 kcal/mol
solvation free energy, 298 K (in CCCOCCO): -12.2 kcal/mol
solvation free energy, 298 K (in CCO): -12 kcal/mol
solvation free energy, 298 K (in CCOC(C)=O): -11.8 kcal/mol
solvation free energy, 298 K (in CCOCC): -11.5 kcal/mol
solvation free energy, 298 K (in CCOCCO): -12.4 kcal/mol
solvation free energy, 298 K (in COC(C)CCO): -12.3 kcal/mol
solvation free energy, 298 K (in O): -9.14 kcal/mol

solvation free energy, 298 K (in O): -23.6 kcal/mol
SMILES: OCC(O)C(O)C(O)C(O)CO (stereo not given)

solvation free energy, 298 K (in O): -5.8 kcal/mol
SMILES: COc1cc(C)ccc1O

solvation free energy, 298 K (in O): -6.26 kcal/mol
SMILES: c1ccc2cc3c(ccc4ccccc43)cc2c1

SMILES: Cc1c[nH]cn1
solvation free energy, 298 K (in O): -10.3 kcal/mol
